Data on 27 compounds can be found in US8785468B2, “Phenylalanine amide derivatives useful for treating insulin-related diseases and conditions” (Amgen Inc., priority 2009, dated 2014).

Some results are limits rather than exact numbers.

The test deals with T1, human receptor found in pancreatic islet cells (Homo sapiens, UniProt Q7Z601).
T1 sequence (Q7Z601 1-462): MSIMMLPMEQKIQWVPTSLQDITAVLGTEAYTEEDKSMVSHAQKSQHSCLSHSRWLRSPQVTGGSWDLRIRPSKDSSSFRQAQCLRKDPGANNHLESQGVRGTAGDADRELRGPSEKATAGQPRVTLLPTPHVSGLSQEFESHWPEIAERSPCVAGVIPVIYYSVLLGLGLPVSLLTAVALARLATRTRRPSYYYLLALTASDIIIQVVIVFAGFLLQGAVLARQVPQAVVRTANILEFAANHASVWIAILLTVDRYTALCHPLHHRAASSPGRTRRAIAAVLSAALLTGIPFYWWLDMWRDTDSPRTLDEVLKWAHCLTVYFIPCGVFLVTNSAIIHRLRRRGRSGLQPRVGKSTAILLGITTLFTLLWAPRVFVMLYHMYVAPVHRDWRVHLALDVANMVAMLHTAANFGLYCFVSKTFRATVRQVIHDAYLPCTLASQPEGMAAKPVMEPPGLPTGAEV
The test is described as follows: Activation of intracellular IP3 signaling in transfected cells (Activation Assay). The format is cell-based. The conditions noted are these: calculated from IP3 concentration measurements in cells transfected with the human receptor. Here is the method: Table 12 provides exemplary compounds that were prepared and assessed, following protocols known to those of skilled in the art, for activation of intracellular inositol trisphosphate (IP3) signaling pathways that lead to elevation of intracellular calcium concentration. EC50 values provided in Table 12 were calculated from IP3 concentration measurements in cells transfected with a human receptor found in pancreatic islet cells, inter alia.
Regarding `C[C@H](N[C@@H](Cc1ccccc1)C(=O)Nc1nnc(-c2ccncc2)s1)c1ccccn1` [Example 1.2, (S)-3-phenyl-2-((S)-1-(pyridin-2-yl)ethylamino)-N-(5-(pyridin-4-yl)-1,3,4-thiadiazol-2-yl)propanamide], the EC50 (in general, the concentration needed to bring the measured effect to its halfway point) was 100 to 1000 nM.
Take `Nc1nc(CN[C@@H](Cc2ccccc2)C(=O)Nc2nnc(-c3ccncc3)s2)cs1` [Example 1.3, (S)-2-((2-aminothiazol-4-yl)methylamino)-3-phenyl-N-(5-(pyridin-4-yl)-1,3,4-thiadiazol-2-yl)propanamide]: the EC50 was 100 to 1000 nM.
For the compound `C[C@H](N[C@@H](Cc1ccccc1)C(=O)Nc1nnc(-c2ccncc2)s1)c1cscn1` [Example 1.4], the concentration giving a half-maximal response (EC50) was 50 to 100 nM.
Turning to `O=C(Nc1nnc(-c2ccncc2)s1)[C@H](Cc1ccccc1)NCc1cscn1` [Example 1.5, (S)-3-phenyl-N-(5-(pyridin-4-yl)-1,3,4-thiadiazol-2-yl)-2-(thiazol-4-ylmethylamino)propanamide], the EC50 was 50 to 100 nM.
As for `O=C(Nc1nnc(-c2ccncc2)s1)[C@H](Cc1cccc(F)c1)NCc1cscn1` [Example 1.6, (S)-3-(3-fluorophenyl)-N-(5-(pyridin-4-yl)-1,3,4-thiadiazol-2-yl)-2-(thiazol-4-ylmethylamino)propanamide], the half-maximal effective concentration (EC50) is 50 to 100 nM.
With `O=C(Nc1nnc(-c2ccncc2)[nH]1)[C@H](Cc1ccccc1)NCc1cscn1` [Example 2, (S)-3-Phenyl-N-(5-(pyridin-4-yl)-4H-1,2,4-triazol-3-yl)-2-(thiazol-4-ylmethylamino)propanamide], the concentration giving a half-maximal response (EC50) was 1000 to 10000 nM.
On to `O=C(Nc1cc(-c2ccncc2)no1)[C@H](Cc1ccc(Cl)cc1)NCc1cscn1` [Example 3.1, (S)-3-(4-Chlorophenyl)-N-(3-(pyridin-4-yl)isoxazol-5-yl)-2-(thiazol-4-ylmethylamino)propanamide], for which the EC50 is 100 to 1000 nM.
With `O=C(O)CN[C@@H](Cc1ccc(F)cc1)C(=O)Nc1cc(-c2ccncc2)no1` [Example 3.2, (S)-2-(3-(4-Fluorophenyl)-1-oxo-1-(3-(pyridin-4-yl)isoxazol-5-ylamino)propan-2-ylamino)acetic acid], the concentration giving a half-maximal response (EC50) is less than 50 nM.
For `O=C(Nc1cc(-c2ccncc2)no1)[C@H](Cc1ccccc1)NCc1cscn1` [Example 3.3, (S)-3-Phenyl-N-(3-(pyridin-4-yl)isoxazol-5-yl)-2-(thiazol-4-ylmethylamino)propanamide] the value was 100 to 1000 nM; for `O=C(Nc1csc(-c2ccncc2)n1)[C@H](Cc1ccccc1)NCc1cscn1` [Example 4, (S)-3-Phenyl-N-(2-(pyridin-4-yl)thiazol-4-yl)-2-(thiazol-4-ylmethylamino)propanamide], 100 to 1000 nM.
For the compound `O=C(Nc1cnc(-c2ccncc2)s1)[C@H](Cc1ccc(F)cc1)NCc1cscn1` [Example 5.2, (S)-3-(4-Fluorophenyl)-N-(2-(pyridin-4-yl)thiazol-5-yl)-2-(thiazol-4-ylmethylamino)propanamide], the half-maximal effective concentration (EC50) is 50 to 100 nM.
For the compound `O=C(Nc1cnc(-c2ccncc2)s1)[C@H](Cc1ccccc1)NCc1cscn1` [Example 5.3, (S)-3-Phenyl-N-(2-(pyridin-4-yl)thiazol-5-yl)-2-(thiazol-4-ylmethylamino)-propanamide], the EC50 was 50 to 100 nM.
As for `O=C(Nc1cncc(-c2ccn[nH]2)c1)[C@H](Cc1ccccc1)NCc1cscn1` [Example 6, (2S)—N-(5-(1H-Pyrazol-5-yl)pyridin-3-yl)-3-phenyl-2-(thiazol-4-ylmethylamino)propanamide], the 50% effective concentration (EC50) is 100 to 1000 nM.
As to `O=C(Nc1cc(-c2ccncc2)n[nH]1)[C@H](Cc1ccccc1)NCc1cscn1` [Example 7, (S)-3-Phenyl-N-(3-(pyridin-4-yl)-1H-pyrazol-5-yl)-2-(thiazol-4-ylmethylamino)propanamide], the EC50 is 50 to 100 nM.
`CNc1cc(-c2nnc(NC(=O)[C@H](Cc3ccccc3)NCc3cscn3)s2)ccn1` [Example 8.1]: the EC50 was less than 50 nM.
`CNc1cc(-c2nnc(NC(=O)[C@H](Cc3ccc(F)cc3)NCc3cscn3)s2)ccn1` [Example 8.2, (2S)-3-(4-fluorophenyl)-N-(5-(2-(methylamine)pyridine-4-yl)-1,3,4-thiadiazol-2-yl)-2-(thiazol-4-ylmethylamino)propanamide]: the EC50 was 50 to 100 nM.
As for `CNc1nccc(-c2cc(NC(=O)[C@H](Cc3ccc(F)cc3)NCc3cscn3)n(C)n2)n1` [Example 9, (2S)-3-(4-fluorophenyl)-N-(1-methyl-3-(2-(methylamino)pyrimidin-4-yl)-1H-pyrazol-5-yl)-2-(thiazol-4-ylmethylamino)propanamide], the EC50 is 100 to 1000 nM.
For `O=C(Nc1nccc(-c2ccncc2)n1)[C@H](Cc1ccccc1)NCc1cscn1` [Example 10, (S)-3-phenyl-N-(4-(pyridin-4-yl)pyrimidin-2-yl)-2-(thiazol-4-ylmethylamino)propanamide], the half-maximal effective concentration (EC50) was 100 to 1000 nM.
Next, `COc1ncc(-c2ccncc2)cc1NC(=O)[C@H](Cc1ccccc1)NC1(c2ccccn2)CC1` [Example 11.1, (S)—N-(2-methoxy-5-(pyridin-4-yl)pyridin-3-yl)-3-phenyl-2-(1-(pyridin-2-yl)cyclopropylamino)propanamide]: less than 50 nM; `O=C(Nc1cccc(-c2cc[nH]n2)c1)[C@H](Cc1ccccc1)NCc1cscn1` [Example 12, (2S)—N-(3-(1H-pyrazol-3-yl)phenyl)-3-phenyl-2-(thiazol-4-ylmethylamino)propanamide]: 50 to 100 nM.
`O=C(Nc1cc(-c2ccncc2)ccc1O)[C@H](Cc1ccccc1)NCc1cscn1` [Example 13, (S)—N-(2-hydroxy-5-(pyridin-4-yl)phenyl)-3-phenyl-2-(thiazol-4-ylmethylamino)propanamide]: the EC50 was less than 50 nM.
Take `COc1ncc(-c2ccn[nH]2)cc1NC(=O)[C@H](Cc1ccccc1)NC1(c2ccccn2)CC1` [Example 14.1, (2S)—N-(2-methoxy-5-(1H-pyrazol-5-yl)pyridin-3-yl)-3-phenyl-2-(1-(pyridin-2-yl)cyclopropylamino)propanamide]: the EC50 was 100 to 1000 nM.
On to `COc1ncc(-c2cc[nH]n2)cc1NC(=O)[C@H](Cc1ccccc1)NC1(c2cscn2)CC1` [Example 14.2], for which the EC50 was 100 to 1000 nM.
For the compound `COc1ncc(-c2cc[nH]n2)cc1NC(=O)[C@H](Cc1ccccc1)NCc1cscn1` [Example 14.3, (2S)—N-(2-methoxy-5-(1H-pyrazol-3-yl)pyridin-3-yl)-3-phenyl-2-(thiazol-4-ylmethylamino)propanamide], the EC50 was 50 to 100 nM.
Next, `COc1ncc(-c2cn[nH]c2)cc1NC(=O)[C@H](Cc1ccccc1)NCc1ccccn1` [Example 15.2, (2S)—N-(2-methoxy-5-(1H-pyrazol-4-yl)pyridin-3-yl)-3-phenyl-2-(pyridin-2-ylmethylamino)propanamide]: 100 to 1000 nM; `Cc1cc(-c2cc(NC(=O)[C@H](Cc3ccc(F)cc3)NCc3cscn3)n(C)n2)ccn1` [Example 16.1, (2S)-3-(4-Fluorophenyl)-N-(1-methyl-3-(2-methylpyridin-4-yl)-1H-pyrazol-5-yl)-2-(thiazol-4-ylmethylamino)propanamide]: less than 50 nM; `Cc1cc(-c2cc(NC(=O)[C@@H](N)Cc3ccc(F)cc3)n(C)n2)ccn1` [Example 16.1.F, (2S)-2-amino-3-(4-fluorophenyl)-N-(1-methyl-3-(2-methylpyridin-4-yl)-1H-pyrazol-5-yl)propanamide]: 100 to 1000 nM.
